Data published in the NIST ThermoML archive (doi:10.1021/je301167q).

Assays:
[1] = 101 kPa, Liquid; for speed of sound: Sing-around technique in a fixed-path interferometer
[2] = xn = mol fraction of the nth substance listed; conditions: 101 kPa, Liquid; for speed of sound: Sing-around technique in a fixed-path interferometer

CCCCCCCC[n+]1ccn(C)c1.F[B-](F)(F)F [1-methyl-3-octylimidazolium tetrafluoroborate]
[1]
Conditions	mass density [kg/m3]	speed of sound [m/s]
298.15 K	1097.61	1481.1
308.15 K	1090.9	1453.9
318.15 K	1084.17	1428.2

CCCCCCn1cc[n+](C)c1.F[B-](F)(F)F [1-hexyl-3-methylimidazolium tetrafluoroborate]
[1]
Conditions	mass density [kg/m3]	speed of sound [m/s]
298.15 K	1145.11	1496.7
308.15 K	1137.71	1472
318.15 K	1130.49	1447.7

CCCCCCCC[n+]1ccn(C)c1.F[B-](F)(F)F [1-methyl-3-octylimidazolium tetrafluoroborate] + CCCCN
[2], x1 = 1
Conditions	mass density [kg/m3]	speed of sound [m/s]
298.15 K	1097.61	1481.1
308.15 K	1090.9	1453.9
318.15 K	1084.17	1428.2

CCCCCCCC[n+]1ccn(C)c1.F[B-](F)(F)F [1-methyl-3-octylimidazolium tetrafluoroborate] + CCCCCCCCN
[2], x1 = 1
Conditions	mass density [kg/m3]	speed of sound [m/s]
298.15 K	1097.61	1481.1
308.15 K	1090.9	1453.9
318.15 K	1084.17	1428.2

CCCCCCn1cc[n+](C)c1.F[B-](F)(F)F [1-hexyl-3-methylimidazolium tetrafluoroborate] + CCCCN
[2], x1 = 1
Conditions	mass density [kg/m3]	speed of sound [m/s]
298.15 K	1145.11	1496.7
308.15 K	1137.71	1472
318.15 K	1130.49	1447.7

CCCCN [1-butanamine] + CCCCCCn1cc[n+](C)c1.F[B-](F)(F)F
[2]
Conditions	mass density, 298.15 K [kg/m3]	mass density, 308.15 K [kg/m3]	mass density, 318.15 K [kg/m3]	speed of sound, 298.15 K [m/s]	speed of sound, 308.15 K [m/s]	speed of sound, 318.15 K [m/s]
x2 = 0	733.33	723.67	714	1246.5	1201.3	1156.2
x2 = 0.0994	820.09	810.83	803.47	1272.3	1231.1	1188.8
x2 = 0.2012	890.48	881.55	874.79	1305.8	1267.4	1229
x2 = 0.302	946.28	937.89	930.48	1341	1305.5	1270.1
x2 = 0.4065	993.19	985.04	977.3	1376.3	1343.8	1312
x2 = 0.4959	1026.43	1018.45	1010.64	1404.6	1374.3	1344.3
x2 = 0.5886	1055.62	1047.87	1040.15	1428.9	1401.1	1373.6
x2 = 0.7069	1086.83	1079.26	1071.7	1456.2	1429.9	1403.8
x2 = 0.8126	1110.28	1102.83	1095.43	1474.1	1450.2	1423.8
x2 = 0.8796	1123.46	1116.13	1108.89	1483.2	1459.8	1433.9

CCCCCCCCN [1-octanamine] + CCCCCCCC[n+]1ccn(C)c1.F[B-](F)(F)F
[2]
Conditions	mass density, 298.15 K [kg/m3]	mass density, 308.15 K [kg/m3]	mass density, 318.15 K [kg/m3]	speed of sound, 298.15 K [m/s]	speed of sound, 308.15 K [m/s]	speed of sound, 318.15 K [m/s]
x2 = 0	777.45	769.46	761.47	1343.2	1303.1	1263.5
x2 = 0.1563	851.54	843.71	835.78	1353.1	1314.6	1276.9
x2 = 0.3025	910.65	902.92	895.08	1370.2	1334.4	1299
x2 = 0.4175	951.05	943.4	935.73	1387.6	1353.8	1320.5
x2 = 0.5225	983.58	976.2	968.62	1404.3	1372.4	1340.9
x2 = 0.6252	1011.86	1004.63	997.3	1420.9	1390.6	1360.7
x2 = 0.7202	1035.54	1028.44	1021.3	1436.5	1407.1	1378.4
x2 = 0.794	1052.58	1045.53	1038.51	1449	1419.9	1392.2
x2 = 0.7994	1053.88	1046.83	1039.75	1449.2	1421.1	1393.2
x2 = 0.8691	1069.21	1062.23	1055.21	1461.3	1432.7	1405.8
x2 = 0.9259	1081.47	1074.59	1067.76	1470.5	1442.2	1416.1

CCCCN [1-butanamine]
[1]
Conditions	mass density [kg/m3]	speed of sound [m/s]
298.15 K	733.33	1246.5
308.15 K	723.67	1201.3
318.15 K	714	1156.2

CCCCCCCCN [1-octanamine] + CCCCCCn1cc[n+](C)c1.F[B-](F)(F)F
[2]
Conditions	mass density, 298.15 K [kg/m3]	mass density, 308.15 K [kg/m3]	mass density, 318.15 K [kg/m3]	speed of sound, 298.15 K [m/s]	speed of sound, 308.15 K [m/s]	speed of sound, 318.15 K [m/s]
x2 = 0	777.45	769.46	761.47	1343.2	1303.1	1263.5
x2 = 0.2986	914.74	906.98	899.32	1365.4	1331.6	1306.8
x2 = 0.398	954.27	946.51	938.79	1379.9	1345.6	1317.5
x2 = 0.4981	991.03	983.38	975.59	1396.2	1364.9	1333.8
x2 = 0.5999	1025.72	1017.96	1010.27	1416.6	1386.2	1356.4
x2 = 0.6994	1057.35	1049.51	1041.89	1437.5	1409.6	1381.5
x2 = 0.7998	1087.45	1079.76	1072.25	1460.3	1433.5	1408.2
x2 = 0.8945	1114.95	1107.34	1099.87	1479.6	1455.6	1431.7

CCCCCCn1cc[n+](C)c1.F[B-](F)(F)F [1-hexyl-3-methylimidazolium tetrafluoroborate] + CCCCCCCCN
[2], x1 = 1
Conditions	mass density [kg/m3]	speed of sound [m/s]
298.15 K	1145.11	1496.7
308.15 K	1137.71	1472
318.15 K	1130.49	1447.7

CCCCCCCCN [1-octanamine]
[1]
Conditions	mass density [kg/m3]	speed of sound [m/s]
298.15 K	777.45	1343.2
308.15 K	769.46	1303.1
318.15 K	761.47	1263.5

CCCCN [1-butanamine] + CCCCCCCC[n+]1ccn(C)c1.F[B-](F)(F)F
[2]
Conditions	mass density, 298.15 K [kg/m3]	mass density, 308.15 K [kg/m3]	mass density, 318.15 K [kg/m3]	speed of sound, 298.15 K [m/s]	speed of sound, 308.15 K [m/s]	speed of sound, 318.15 K [m/s]
x2 = 0	733.33	723.67	714	1246.5	1201.3	1156.2
x2 = 0.0963	817.1	807.93	800.03	1276.5	1235	1193.1
x2 = 0.1917	880.04	871.4	863.91	1309	1270.6	1232
x2 = 0.2948	932.2	924.07	916.37	1344.1	1309	1274
x2 = 0.3866	968.66	960.74	953.13	1371.6	1338.8	1306.4
x2 = 0.49	1001.63	993.95	986.41	1398.9	1368.2	1337.9
x2 = 0.5895	1027.36	1019.96	1012.6	1421.3	1391.9	1363.3
x2 = 0.7124	1053.43	1046.28	1039.31	1442.7	1414.8	1387.4
x2 = 0.7925	1067.91	1060.88	1053.97	1454.2	1427.1	1400
x2 = 0.8843	1082.31	1075.48	1068.67	1465.8	1438.8	1412.3
